In BindingDB's records for doi:10.1021/jm950874+ (National Institutes of Health, 1996):

Molecular target: T1, Dimer of Gag-Pol polyprotein [489-587] (Human immunodeficiency virus 1, UniProt P12497)
T1 construct: 489-587
Test: Protease Inhibition Assay
Conditions: pH 6.5; 37 °C
Procedure: Sensitivity of HIV-1 protease activity to protease inhibitors was determined by a peptide substrate cleavage assay. Protease products were analyzed on a reverse-phase high-pressure liquid chromatograph.

SMILES	IC50 [µM]
CCCCCCc1cc2c(cc1O)OC(=O)C(C(c1ccccc1)c1c(O)c3cc(CCCCCC)c(O)cc3oc1=O)C2O (stereo not drawn)	0.32
O=c1oc2cccc(O)c2c(O)c1Cc1ccccc1	6
O=C1C(=O)c2ccccc2C(=O)C1=C(c1ccc(C(C2C(=O)C(=O)c3ccccc3C2=O)C2C(=O)C(=O)c3ccccc3C2=O)cc1)c1c(O)c(O)c2ccccc2c1O (stereo not drawn) [2-({4-[bis(3-hydroxy-1,4-dioxo-1,4-dihydronaphthalen-2-yl)methyl]phenyl}(3-hydroxy-1,4-dioxo-1,4-dihydronaphthalen-2-yl)methyl)-3-hydroxy-1,4-dihydronaphthalene-1,4-dione]	0.75
O=C1C(=O)c2ccccc2C(=O)C1=C(c1ccc(Cl)cc1Cl)c1c(O)c(O)c2ccccc2c1O [2-[(2,4-dichlorophenyl)(3-hydroxy-1,4-dioxo-1,4-dihydronaphthalen-2-yl)methyl]-3-hydroxy-1,4-dihydronaphthalene-1,4-dione]	24
CC(=O)NC(Cc1ccsc1)(C(=O)O)C(=O)O [2-acetamido-2-(thiophen-3-ylmethyl)propanedioic acid]	23
CCCC(=O)c1c(O)c(C)c(O)c(CC2C(=O)C(C(=O)CCC)C(=O)C(C)(C)C2=O)c1O (stereo not drawn) [2-butanoyl-6-[(3-butanoyl-2,4,6-trihydroxy-5-methylphenyl)methyl]-3,5-dihydroxy-4,4-dimethylcyclohexa-2,5-dien-1-one]	26
O=c1oc2ccccc2c(O)c1C(c1ccc(C(c2c(O)c3ccccc3oc2=O)c2c(O)c3ccccc3oc2=O)cc1)c1c(O)c2ccccc2oc1=O [3-({4-[bis(4-hydroxy-2-oxo-2H-chromen-3-yl)methyl]phenyl}(4-hydroxy-2-oxo-2H-chromen-3-yl)methyl)-4-hydroxy-2H-chromen-2-one]	1.7
O=C1C2=C(C(=O)c3ccccc31)C(O)(S(=O)(=O)O)C(O)(S(=O)(=O)O)C1N=CC=CC21 (stereo not drawn) [11,12-dihydroxy-5,10-dioxo-4a,5,10,11,12,12a-hexahydro-1-azatetraphene-11,12-disulfonic acid]	2
CC1(C)CC[C@]2(C(=O)O)CC[C@@]3(C)C(=CC[C@H]4[C@@]5(C)C[C@H](O)[C@H](O)[C@](C)(C(=O)O)[C@H]5CC[C@]43C)[C@@H]2C1 [(2S,3R,4R,4aS,6aR,6bR,8aS,12aS,14aS,14bR)-2,3-dihydroxy-4,6a,6b,11,11,14b-hexamethyl-1,2,3,4,4a,5,6,6a,6b,7,8,8a,9,10,11,12,12a,14,14a,14b-icosahydropicene-4,8a-dicarboxylic acid]	35
C[C@]12CCC(=O)C=C1CC[C@@H]1[C@H]2[C@@H](O)C[C@@]2(C)[C@@H]1CC[C@]2(O)C(=O)COC(=O)CCC(=O)O [Cancer Chemotherapy National Service Center (CCNSC) compound 7576]	27
CC(C)CC(NC(=O)OCc1ccccc1)(C(=O)O)C(=O)O [Cancer Chemotherapy National Service Center (CCNSC) compound 20143]	17
O=C1Oc2ccccc2C(O)C1Sc1c(O)c2ccccc2oc1=O (stereo not drawn) [Cancer Chemotherapy National Service Center (CCNSC) compound 41234]	21
CC(=O)OC1CCC2(C)C(C)C(C)CCC2(O)C1O (stereo not drawn) [Cancer Chemotherapy National Service Center (CCNSC) compound 112500]	16
O=c1oc2c(-c3ccccc3)cccc2c(O)c1-c1ccccc1 [Cancer Chemotherapy National Service Center (CCNSC) compound 251150]	13
O=c1oc2ccccc2c(O)c1-c1ccccc1 [Cancer Chemotherapy National Service Center (CCNSC) compound 251152]	42
O=c1oc2ccccc2c(O)c1C(c1ccc2c(c1)OCO2)c1c(O)c2ccccc2oc1=O [Cancer Chemotherapy National Service Center (CCNSC) compound 373937]	30
CC(C)c1cccc(C(C)C)c1NC(=O)C(=O)CC(=O)CC(c1ccccc1)c1c(O)c2ccccc2oc1=O (stereo not drawn) [N-[2,6-bis(propan-2-yl)phenyl]-6-(4-hydroxy-2-oxo-2H-chromen-3-yl)-2,4-dioxo-6-phenylhexanamide]	31
O=C(Oc1ccccc1)N(CCO)C(c1ccccc1)C(O)c1ccccc1 (stereo not drawn) [phenyl N-(2-hydroxy-1,2-diphenylethyl)-N-(2-hydroxyethyl)carbamate]	32
